Laboratory results: patent publication US11485742B2, “2-azaspiro[3.4]octane derivatives as M4 agonists” (NOVARTIS AG, priority 2019, dated 2022)

Legend:
[1] = biological target: T1, human cloned CHRM4 receptor (Homo sapiens, UniProt P08173); assay: CHRM4 Ca++ Flux Assay (M4_CHO cells, agonist mode); format: cell-based; settings: for Emax: Percent Activity (PA), read-out: M4 FDSS PA %; for EC50: geometric mean if tested more than once, read-out: M4 FDSS EC50
T1 construct: expressed in transfected cells; host or cells: CHO-K1 (M4_CHO)
T1 sequence (P08173 1-479): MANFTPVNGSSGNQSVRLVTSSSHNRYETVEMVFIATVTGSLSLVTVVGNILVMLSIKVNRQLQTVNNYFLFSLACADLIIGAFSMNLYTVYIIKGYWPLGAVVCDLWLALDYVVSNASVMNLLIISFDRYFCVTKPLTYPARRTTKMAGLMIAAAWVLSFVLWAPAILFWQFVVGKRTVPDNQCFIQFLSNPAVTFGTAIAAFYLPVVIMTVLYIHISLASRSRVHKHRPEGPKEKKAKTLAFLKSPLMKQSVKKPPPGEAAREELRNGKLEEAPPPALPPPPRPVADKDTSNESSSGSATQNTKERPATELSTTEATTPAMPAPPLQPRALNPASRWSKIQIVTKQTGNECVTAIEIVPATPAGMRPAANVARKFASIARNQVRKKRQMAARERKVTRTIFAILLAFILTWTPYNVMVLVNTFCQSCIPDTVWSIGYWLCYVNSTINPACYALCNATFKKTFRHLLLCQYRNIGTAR
Summary of the method: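 Agonist-mode calcium flux in an M4-expressing CHO-K1 line: compounds were dosed at 11 points in triplicate and fluorescence was tracked for 3 min. Cells were preloaded with Ca++ dye and kept in −Ca/−Mg HBSS with 20 μM ATP for 60 min. Efficacy is scaled to carbachol EC100; EC50s come from four-parameter regression, geometric mean across runs.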

[2] = biological target: T2, human cloned CHRM3 receptor (Homo sapiens, UniProt P20309); assay: CHRM3 Ca++ Flux Assay (M3_CHO cells, agonist mode); format: cell-based; settings: for Emax: Percent Activity (PA) measured to EC100 of Carbachol, read-out: M3 FDSS PA %; for EC50: agonist mode, geometric mean if tested more than once, read-out: M3 FDSS EC50
T2 construct: expressed in transfected cells; host or cells: CHO-K1 (M3_CHO)
Summary of the method: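 Agonist-mode calcium mobilisation: compounds, 11 concentrations in triplicate, applied to stable M3_CHO or M5_CHO cells loaded with Ca++ dye, fluorescence followed 3 min. Efficacy expressed against carbachol EC100; EC curves by four-parameter nonlinear regression, geometric mean across independent runs.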

T2 sequence (P20309 whole entry): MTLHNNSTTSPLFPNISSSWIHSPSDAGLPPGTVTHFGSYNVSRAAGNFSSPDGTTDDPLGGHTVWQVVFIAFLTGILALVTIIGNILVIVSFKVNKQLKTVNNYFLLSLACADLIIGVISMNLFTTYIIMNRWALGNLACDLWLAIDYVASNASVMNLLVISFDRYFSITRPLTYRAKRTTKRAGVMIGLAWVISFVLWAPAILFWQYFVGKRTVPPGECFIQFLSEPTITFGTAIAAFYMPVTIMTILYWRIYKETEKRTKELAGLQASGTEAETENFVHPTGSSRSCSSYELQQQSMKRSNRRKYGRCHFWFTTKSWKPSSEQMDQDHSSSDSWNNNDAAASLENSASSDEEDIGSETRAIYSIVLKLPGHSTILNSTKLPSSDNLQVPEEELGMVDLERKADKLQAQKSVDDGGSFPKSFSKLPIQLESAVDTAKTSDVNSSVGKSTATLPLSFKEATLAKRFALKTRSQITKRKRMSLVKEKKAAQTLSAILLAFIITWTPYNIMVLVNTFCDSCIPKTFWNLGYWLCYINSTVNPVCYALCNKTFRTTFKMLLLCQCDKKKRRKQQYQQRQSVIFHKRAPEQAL

Structure (SMILES): Fc1cc(OCC2COC2)c(C2CCN([C@@H]3COC4(C3)CN(c3ncco3)C4)CC2)cc1F [Example 4O, (S)-7-(4-(4,5-difluoro-2-(oxetan-3-ylmethoxy)phenyl)piperidin-1-yl)-2-(oxazol-2-yl)-5-oxa-2-azaspiro[3.4]octane]
- Emax [1]: 58%
- EC50 [1]: 7 nM
- Emax [2]: 0%
- EC50 [2]: > 25000 nM

Structure (SMILES): Fc1ccc(O[C@@H]2CCOC2)c(C2CCN([C@@H]3COC4(C3)CN(c3ncco3)C4)CC2)c1 [Example 4D, (S)-7-(4-(5-fluoro-2-(((R)-tetrahydrofuran-3-yl)oxy)phenyl)piperidin-1-yl)-2-(oxazol-2-yl)-5-oxa-2-azaspiro[3.4]octane]
- Emax [1]: 77%
- EC50 [1]: 7 nM
- Emax [2]: 0%
- EC50 [2]: > 25000 nM

Structure (SMILES): Fc1cc(O[C@@H]2CCOC2)c(C2CCN([C@@H]3COC4(C3)CN(c3nncs3)C4)CC2)cc1F [Example 5M, (S)-7-(4-(4,5-difluoro-2-(((R)-tetrahydrofuran-3-yl)oxy)phenyl)piperidin-1-yl)-2-(1,3,4-thiadiazol-2-yl)-5-oxa-2-azaspiro[3.4]octane]
- Emax [1]: 73%
- EC50 [1]: 58 nM
- Emax [2]: 0%
- EC50 [2]: > 25000 nM

Structure (SMILES): COCCOc1ccc(F)cc1C1CCN([C@@H]2COC3(C2)CN(c2ncco2)C3)CC1 [Example 4L, (S)-7-(4-(5-fluoro-2-(2-methoxyethoxy)phenyl)piperidin-1-yl)-2-(oxazol-2-yl)-5-oxa-2-azaspiro[3.4]octane]
- Emax [1]: 52%
- EC50 [1]: 27 nM
- Emax [2]: 0%
- EC50 [2]: > 25000 nM

Structure (SMILES): Fc1ccc(OC[C@H]2COCCO2)c(C2CCN([C@@H]3COC4(C3)CN(c3nncs3)C4)CC2)c1 [Example 5K, (S)-7-(4-(2-(((R)-1,4-dioxan-2-yl)methoxy)-5-fluorophenyl)piperidin-1-yl)-2-(1,3,4-thiadiazol-2-yl)-5-oxa-2-azaspiro[3.4]octane]
- Emax [1]: 87%
- EC50 [1]: 31 nM
- Emax [2]: 0%
- EC50 [2]: > 25000 nM

Structure (SMILES): Fc1cc(OC2COC2)c(C2CCN([C@@H]3COC4(C3)CN(c3ncco3)C4)CC2)cc1F [Example 4Q, (S)-7-(4-(4,5-difluoro-2-(oxetan-3-yloxy)phenyl)piperidin-1-yl)-2-(oxazol-2-yl)-5-oxa-2-azaspiro[3.4]octane]
- Emax [1]: 60%
- EC50 [1]: 11 nM
- Emax [2]: 0%
- EC50 [2]: > 25000 nM

Structure (SMILES): COC(C)(C)CCOc1ccc(F)cc1C1CCN([C@@H]2COC3(C2)CN(c2nncs2)C3)CC1 [Example 5N, (S)-7-(4-(5-fluoro-2-(3-methoxy-3-methylbutoxy)phenyl)piperidin-1-yl)-2-(1,3,4-thiadiazol-2-yl)-5-oxa-2-azaspiro[3.4]octane]
- Emax [1]: 61%
- EC50 [1]: 68 nM
- Emax [2]: 0%
- EC50 [2]: > 25000 nM
